Like-named read-outs stand apart in the source and are kept apart here.
Experiments:
[1] = test system: DNFB-induced delayed type hypersensitivity reaction; experiment: DNFB-induced delayed type hypersensitivity reaction in mice; format: in vivo, BALB/c mice; conditions: 1.5 mg/kg/d, intraperitoneal injection; model control 0.175 mm
Experimental: The delayed type hypersensitivity (DTH) reaction in mice was induced by DNFB to evaluate the inhibition effect of the compound on DTH in vivo. […] Preparation method: the compound was dissolved in anhydrous alcohol to prepare a stock solution (50 mg/ml), which was diluted to the desired concentration when use by using a solution of 5% PEG400, 5% Tween-80 in sterile water as a solvent. […] DNFB combined with dermal protein to form a complete antigen after sensitizing on feet of mice. One week later, mice were attacked by DNFB on ears to induce a local delayed allergic reaction, i.e., the delayed type hypersensitivity reaction to cause ear swelling, while the delayed type hypersensitivity reaction would not be observed on the ear which had not been attacked. Therefore, the ear swelling can reflect the level of the delayed type hypersensitivity reaction in mice induced by DNFB. (1) 20 μl of 0.5% DNFB solution in a mixture of acetone and olive oil (4:1) as a solvent was applied on both hind legs of mice for sensitization. […] (4) Thickness of the left and right ears of the mice was measured by a micrometer screw gauge, and the swelling was calculated by subtracting the thickness of the left ear from thickness of the right ear.

[2] = Immunosuppressive activity assay: cytotoxicity; format: cell-based
[3] = test system: human rhabdomyosarcoma RH-30 xenograft; experiment: RH-30 xenograft on nude mice; conditions: for TV (mm^3) d0: baseline;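 for all read-outs here: male BALB/cA nude mice with subcutaneous RH-30 tumors, oral dosing versus solvent-fed controls, caliper tumor volume, RTV relative to grouping day, T/C as treated RTV over control RTV ×100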
Text: Animals: BALB/cA nude mice, male, 40-45 days old, body weight: 21±2 g, provided by Shanghai Institute of Materia Medica, Chinese Academy of Sciences. License No.: SCXK (Shanghai) 2004-0002. Animal number in each group: 6 in negative control group, and 6 in administration group.
The amount of inoculated cells was 5×10^6. After the xenograft was formed by inoculation, it was used after passed for 3 generations in nude mice.

[4] = test system: normal mouse spleen B lymphocytes induced by LPS; experiment: 3H-TdR incorporation, LPS-induced B lymphocyte proliferation; format: cell-based, BALB/c mice; conditions: read-out: IC50, proliferation of B lymphocytes induced by LPS
Experimental: ^3H-thymidine incorporation was adopted to measure the effect of the in vitro administered compound on the proliferation function of the spleen lymphocytes of normal mice induced by a mixed culture of mitogen/allogeneic mouse spleen lymphocytes, and evaluate the in vitro immunosuppressive activity of the compound.
Measurement of the effects of compounds on the proliferation function of mouse spleen lymphocytes induced by mitogen by ^3H-TdR incorporation: 100 μl cell suspension of mouse spleen lymphocytes was inoculated on a 96-well plate (4×10^5 per well), followed by addition of 50 μl of ConA (final concentration: 5 μg/ml), 50 μl of LPS (final concentration: […]) or 50 μl of compound at different concentrations. The total volume of each well was 200 μl. The test was carried out in triplicate wells for each concentration, and included control wells without ConA/LPS or the compound. After the 96-well plate was placed in an incubator at 37° C. with 5% CO2 for 48 hours, 25 μl of ^3H-thymidine (10 μCi/ml) was added in each well 8 hours before the end of incubation. […] The amount of ^3H-TdR incorporated in cell DNA was determined by a Beta cell counter (MicroBeta Trilux, PerkinElmer), and the cell proliferation was represented as a cpm value.

T Cells = experiment: Immunosuppressive activity assay: T cells inhibitory activity; format: cell-based; conditions: T-cell; Table 10
[5] = MTT cytotoxicity on mouse spleen lymphocytes; format: cell-based, BALB/c mice; conditions: BALB/c, MTT assay
Experimental: 3-(4,5-dimethylthylthiazol-2-yl)-2,5-diphenyl tetrazolium bromide (MTT) assay was adopted to measure the effect of the in vitro administered compound on the activity of the spleen lymphocytes of normal mice, and evaluate the cytotoxicity of the compound.
They were dissolved in DMSO before testing to prepare a stock solution, which was diluted to a desired concentration with the medium when use.
100 μl cell suspension of mouse spleen lymphocytes was inoculated on a 96-well plate (4×10^5 per well), and the compound at different concentrations was added therein, including additional solvent control or medium background control, wherein, the total volume of each well was 200 μl. After the 96-well plate was placed in an incubator at 37° C. with 5% CO2 for 48 hours, 20 μl (5 mg/ml) of MTT solution was added 6 to 7 hours before the end of incubation. Then after the incubation was completed, 100 μl of supernatant was removed for each well, and 100 μl of […] was added therein. After the 96-well plate was placed in the incubator for 6 to 7 hours, OD values were determined on an ELISA Reader at the wavelength of 570 nm.

[6] = test system: human osteosarcoma U2SO xenograft; experiment: U2SO xenograft on nude mice; conditions: 1-5/3 w; for TV (mm^3) d0: baseline
[7] = test system: acute graft-versus-host disease (aGVHD); experiment: Acute graft-versus-host disease (aGVHD) mouse model; format: in vivo, C57B/6 mice; conditions: 1.5 mg/kg/d, intraperitoneal injection, FIG. 15
Experimental: Donator: BABL/C mice; acceptor: C57B/6 mice.
C57B/6(H-2^b) mice, female, 7 weeks old, were used as the acceptor mice to receive 8.5 Gy of total body irradiation in a Gammacell.
After the acceptor mice received irradiation for 4 to 6 hours, the heterogenetic bone marrow transplantation was carried out.
BABL/C(H-2^d) mice, female, 4 weeks old were used as the donator mice. The bone marrow cells in long bone of the mice limbs and the spleen lymphocytes were collected and suspended in a PBS buffer solution respectively by adjusting the cell concentration to 1×10^8.
The two kinds of cells were mixed equivalently to prepare a mixed cell suspension. Each acceptor mouse was intravenously injected with 0.5 ml of the suspension.
Mice were randomly divided into 3 groups with 10 mice in each group. Mice were administered once daily from the first day when the bone marrow transplantation was carried out.
Y-31 group (1.5 mg/kg/d, intraperitoneal injection)
(1) Body weight: weighted once daily;
(2) The survival time of the mice after BMT was recorded.

[8] = Table 10, read-out: Cytotoxicity CC50
[9] = Table 2, 5 mg/kg p.o, 1-5 × 3 w
[10] = Table 2, 10 mg/kg p.o, 1-5 × 3 w

Compound	average ear swelling degree [1] [mm]	CC50 [2, 8] [µM]	Body Weight (g) end ([3]; Table 4, 2.5 mg/kg po, 1-5/2 w) [g]	Body Weight (g) start ([3]; Table 4, 2.5 mg/kg po, 1-5/2 w) [g]	RTV ([3]; Table 4, 2.5 mg/kg po, 1-5/2 w)	T/C (%) ([3]; Table 4, 2.5 mg/kg po, 1-5/2 w)	TV (mm^3) d14 ([3]; Table 4, 2.5 mg/kg po, 1-5/2 w) [mm^3]	TV (mm^3) d0 ([3]; Table 4, 2.5 mg/kg po, 1-5/2 w) [mm^3]	Body Weight (g) end ([3]; Table 4, 5 mg/kg po, 1-5/2 w) [g]	Body Weight (g) start ([3]; Table 4, 5 mg/kg po, 1-5/2 w) [g]	RTV ([3]; Table 4, 5 mg/kg po, 1-5/2 w)	T/C (%) ([3]; Table 4, 5 mg/kg po, 1-5/2 w)	TV (mm^3) d14 ([3]; Table 4, 5 mg/kg po, 1-5/2 w) [mm^3]	TV (mm^3) d0 ([3]; Table 4, 5 mg/kg po, 1-5/2 w) [mm^3]	IC50 (T Cells) [nM]	CC50 at 48 h [5] [µM]	Body Weight (g) end ([6]; Table 5, oral 2.5 mg/kg) [g]	Body Weight (g) start ([6]; Table 5, oral 2.5 mg/kg) [g]	RTV ([6]; Table 5, oral 2.5 mg/kg)	T/C (%) ([6]; Table 5, oral 2.5 mg/kg)	also measured
CO[C@H]1C[C@@H]2CC[C@@H](C)[C@@](O)(O2)C(=O)C(=O)N2CCCC[C@H]2C(=O)O[C@H]([C@H](C)C[C@@H]2CC[C@@H](O)[C@H](OC)C2)CC(=O)[C@H](C)/C=C(\C)[C@@H](O)[C@@H](OC)C(=O)[C@H](C)C[C@H](C)/C=C/C=C/C=C/1C [Rapamycin]	0.076	> 100	21.8	20.2	2.8 ± 0.8	63.7	440 ± 157	164 ± 67	20.3	19.8	2.4 ± 1.0	54.4	362 ± 100	159 ± 32	4200	45.5	18.5	19.7	15 ± 5.1	60.0	CC50 ([2]; Table 10, value beyond the >100 μM bound, read-out: Cytotoxicity CC50, value in brackets): 3600 µM; Body Weight (g) end [3, 9]: 27.0 g; Body Weight (g) start [3, 9]: 23.7 g; RTV [3, 9]: 5.5 ± 1.8; T/C (%) [3, 9]: 61.8%; TV (mm^3) d21 [3, 9]: 650 ± 326 mm^3; TV (mm^3) d0 [3, 9]: 124 ± 65 mm^3; Body Weight (g) end [3, 10]: 25.7 g; Body Weight (g) start [3, 10]: 23.3 g; RTV [3, 10]: 3.1 ± 0.7; T/C (%) [3, 10]: 35.7%; TV (mm^3) d0 [3, 10]: 136 ± 57 mm^3; IC50 [4]: 48.8 nM; TV (mm^3) d21 ([6]; Table 5, oral 2.5 mg/kg): 1230 ± 344 mm^3; TV (mm^3) d0 ([6]; Table 5, oral 2.5 mg/kg): 85 ± 24 mm^3; Body Weight (g) end ([6]; Table 5, oral 5 mg/kg): 17.5 g; Body Weight (g) start ([6]; Table 5, oral 5 mg/kg): 19.5 g; RTV ([6]; Table 5, oral 5 mg/kg): 15 ± 3.4; T/C (%) ([6]; Table 5, oral 5 mg/kg): 59.0%; TV (mm^3) d0 ([6]; Table 5, oral 5 mg/kg): 86 ± 20 mm^3
CO[C@H]1C[C@@H]2CC[C@@H](C)[C@@](O)(O2)C(=O)C(=O)N2CCCC[C@H]2C(=O)O[C@H]([C@H](C)C[C@@H]2CC[C@@H](OC(=O)OCC(O)CO)[C@H](OC)C2)CC(=O)[C@H](C)/C=C(\C)[C@@H](O)[C@@H](OC)C(=O)[C@H](C)C[C@H](C)/C=C/C=C/C=C/1C (stereo partly drawn) [Y31]	0.129	93	21.2	19.2	1.6 ± 0.6	37.1	259 ± 130	159 ± 36	21.7	20.8	2.0 ± 0.5	45.5	316 ± 153	160 ± 53	50	36.9	20.2	18.5	12 ± 6.7	49.0	Safety Index CC50/IC50 ([2]; Table 10): 1860.0; effect on the survival rate of the aGVHD mice [7]: markedly increase the survival rate; effect on the weight loss caused by aGVHD [7]: significantly alleviate the weight loss; IC50 ([4]; LPS, 48 hours, 3H-TdR): 97.8 nM; TV (mm^3) d21 ([6]; Table 5, oral 2.5 mg/kg): 975 ± 235 mm^3; TV (mm^3) d0 ([6]; Table 5, oral 2.5 mg/kg): 90 ± 27 mm^3; Body Weight (g) end ([6]; Table 5, oral 5 mg/kg): 19.5 g; Body Weight (g) start ([6]; Table 5, oral 5 mg/kg): 17.7 g; RTV ([6]; Table 5, oral 5 mg/kg): 11 ± 7.2; T/C (%) ([6]; Table 5, oral 5 mg/kg): 44.0%; TV (mm^3) d21 ([6]; Table 5, oral 5 mg/kg): 967 ± 234 mm^3; TV (mm^3) d0 ([6]; Table 5, oral 5 mg/kg): 89 ± 19 mm^3

Source: patent US8455510B2
